Counter-ions that a name gives are not always drawn.
test system: ATGL-KO iPSCs; test: High throughput iPSC chemical screening, Oil Red O (ORO) lipid accumulation; type: cell-based, mouse; conditions: glycolytic switch compounds; as to Z-score: test concentration or dose not given here

Compared with `Clc1ccc(C(Cn2ccnc2)OCc2csc3c(Cl)cccc23)c(Cl)c1` (stereo not shown) [Sertaconazole nitrate], `Clc1ccc(CSC(Cn2ccnc2)c2ccc(Cl)cc2Cl)cc1` (stereo not shown) [Sulconazole nitrate] is lower in “Rank in normalized ORO score from screen” value: 464 for the first, 372 for the second.

For `CC/C(=C(\c1ccccc1)c1ccc(OCCN(C)C)cc1)c1ccccc1` [Tamoxifen citrate], the “Rank in normalized ORO score from screen” value was 130.

same assay, conditions: normalized ORO level vs DMSO-treated cells; compound present during 7 days differentiation, 96-well; negative = decrease in lipid accumulation

Going from `CC[C@H]1OC(=O)[C@H](C)[C@@H](O[C@H]2C[C@@](C)(OC)[C@@H](O)[C@H](C)O2)[C@H](C)[C@@H](O[C@@H]2O[C@H](C)C[C@H](N(C)C)[C@H]2O)[C@](C)(O)C[C@@H](C)/C(=N\OCOCCOC)[C@H](C)[C@@H](O)[C@]1(C)O` [Roxithromycin] to `C[C@@H]1O[C@@H](O[C@H]2C[C@@H](O)[C@]3(CO)[C@H]4[C@H](O)C[C@]5(C)[C@@H](C6=CC(=O)OC6)CC[C@]5(O)[C@@H]4CC[C@]3(O)C2)[C@H](O)[C@H](O)[C@H]1O.O.O.O.O.O.O.O.O` [Strophantine octahydrate], the Z-score rises from −1.026 to 3.188.

Going from `CCN(CC)C(=O)N[C@H]1C[C@@H]2c3cccc4[nH]cc(c34)C[C@H]2N(C)C1.O=C(O)/C=C\C(=O)O` [S(−)-terguride hydrogen maleate] to `CC(C)(C)NC(=O)[C@@H]1C[C@@H]2CCCC[C@@H]2CN1C[C@@H](O)[C@H](Cc1ccccc1)NC(=O)[C@H](CC(N)=O)NC(=O)c1ccc2ccccc2n1` [Saquinavir mesylate], the Z-score rises from −1.0498 to 1.027.

First: CC(C)Cc1ccc([C@H](C)C(=O)O)cc1 [S-(+)-ibuprofen]
Second: CC(C(=O)O)c1ccc(C(=O)c2cccs2)cc1 (stereo not shown) [Suprofen]
The Z-score of the first is lower: −1.4076 for the first, −0.7501 for the second.

Going from `c1ccc2c(c1)CCCc1cc(NCCN3CCOCC3)nnc1-2` [SR-95639A] to `Cc1scc2c1N(C(=O)CN1CCN(C)CC1)c1ccccc1NC2=O` [Telenzepine dihydrochloride], the Z-score rises from −0.7703 to 0.2257.

Going from `CC(C)(C)NCC(O)c1ccc(O)c(CO)c1` (stereo not shown) [Salbutamol] to `OCc1cc(C(O)CNCCCCCCOCCCCc2ccccc2)ccc1O` (stereo not shown) [Salmeterol], the Z-score rises from −0.9959 to 0.4502.

Compared with `C[C@@H]1NCCc2cc(O)c(O)cc21` [Salsolinol hydrobromide], `COc1cc2c(cc1O)[C@@H]1Cc3ccc(OC)c(O)c3CN1CC2` [Scoulerine] is higher in Z-score: 0.8772 for the first, 19.9884 for the second.

Compared with `C[n+]1cc2c3c(ccc2c2ccc4cc5c(cc4c21)OCO5)OCO3` [Sanguinarine], `CC1=C(CC(=O)O)c2cc(F)ccc2/C1=C\c1ccc([S+](C)[O-])cc1` (stereo not shown) [Sulindac] is lower in Z-score: 31.0936 for the first, 1.451 for the second.

First: Br.C[N+]1([O-])[C@@H]2CC(OC(=O)[C@H](CO)c3ccccc3)C[C@H]1[C@@H]1O[C@@H]12 (stereo partly shown) [Scopolamin-N-oxide hydrobromide]
Second: CN1[C@@H]2C[C@@H](OC(=O)[C@H](CO)c3ccccc3)C[C@H]1[C@@H]1O[C@@H]12 [Scopolamine hydrochloride]
The Z-score of the first is higher: 0.9998 for the first, 0.9672 for the second.

Going from `COc1cc2ccc(=O)oc2cc1O` [Scopoletin] to `COc1ccc2c(OC)c3ccoc3nc2c1OC` [Skimmianine], the Z-score falls from 0.6027 to −1.2252.

First: O=C1C=C2C=C[C@@H]3C[C@@]2(O1)[C@H]1CCCCN31 [Securinine]
Second: C1CCN2C[C@@H]3C[C@@H](CN4CCCC[C@@H]34)[C@H]2C1 [Sparteine (−)]
The Z-score of the first is lower: −0.5036 for the first, −0.3524 for the second.

Going from `C#CCN(C)[C@H](C)Cc1ccccc1` [Selegiline hydrochloride] to `CC/C(=C(\c1ccccc1)c1ccc(OCCN(C)C)cc1)c1ccccc1` [Tamoxifen citrate], the Z-score falls from 2.279 to −1.1882.

Going from `C=C1C/C(=C/C)C(=O)O[C@@H]2CCN3CC=C(COC(=O)[C@]1(C)O)[C@H]23` [Seneciphylline] to `C[C@]12CC[C@H]3[C@@H](CC[C@]4(O)C[C@@H](O)CC[C@]34C=O)[C@@]1(O)CC[C@@H]2C1=CC(=O)OC1` [Strophanthidin], the Z-score rises from −1.7519 to 0.6732.

First: NCCc1c[nH]c2ccc(O)cc12 [Serotonin hydrochloride]
Second: Nc1c2c(nc3ccccc13)CCCC2 [Tacrine hydrochloride hydrate]
The Z-score of the first is higher: −0.8664 for the first, −2.143 for the second.

Going from `Clc1ccc(C(Cn2ccnc2)OCc2csc3c(Cl)cccc23)c(Cl)c1` (stereo not shown) [Sertaconazole nitrate] to `Clc1ccc(CSC(Cn2ccnc2)c2ccc(Cl)cc2Cl)cc1` (stereo not shown) [Sulconazole nitrate], the Z-score falls from −0.4658 to −0.6576.

Going from `CN[C@H]1CC[C@@H](c2ccc(Cl)c(Cl)c2)c2ccccc21` [Sertraline hydrochloride] to `Nc1ccc(S(=O)(=O)Nc2cnc3ccccc3n2)cc1` [Sulfaquinoxaline sodium salt], the Z-score rises from −1.6299 to 0.579.

First: CCC(C)(C)C(=O)O[C@H]1C[C@@H](C)C=C2C=C[C@H](C)[C@H](CC[C@@H]3C[C@@H](O)CC(=O)O3)[C@H]21 [Simvastatin]
Second: CN[C@@H]1[C@H](O)[C@H](NC)[C@H]2O[C@@]3(O)C(=O)C[C@@H](C)O[C@H]3O[C@@H]2[C@H]1O [Spectinomycin dihydrochloride]
The Z-score of the first is higher: 15.173 for the first, −0.1287 for the second.

Compared with `CN[C@@H]1[C@@H](O)[C@@H](O[C@@H]2[C@@H](O)[C@H](O[C@H]3OC(CN)=CC[C@H]3N)[C@@H](N)C[C@H]2N)OC[C@]1(C)O` [Sisomicin sulfate], `[H]/N=C(/N)N[C@H]1[C@H](O)[C@@H](O)[C@H](O[C@@H]2O[C@@H](C)[C@](O)(C=O)[C@H]2O[C@@H]2O[C@@H](CO)[C@H](O)[C@@H](O)[C@@H]2NC)[C@@H](N/C(N)=N\[H])[C@@H]1O` [Streptomycin sulfate] is higher in Z-score: −0.7041 for the first, 1.417 for the second.

Compared with `C[C@@H]1CC[C@@]2(NC1)O[C@H]1C[C@H]3[C@@H]4CC=C5C[C@@H](O)CC[C@]5(C)[C@H]4CC[C@]3(C)[C@H]1[C@@H]2C` [Solasodine], `CC(=O)S[C@@H]1CC2=CC(=O)CC[C@]2(C)[C@H]2CC[C@@]3(C)[C@@H](CC[C@@]34CCC(=O)O4)[C@H]12` [Spironolactone] is lower in Z-score: −0.5386 for the first, −1.7632 for the second.

Compared with `CC(C)NCC(O)c1ccc(NS(C)(=O)=O)cc1` (stereo not shown) [Sotalol hydrochloride], `O=C(O)CCC(=O)Nc1ccc(S(=O)(=O)Nc2nccs2)cc1` [Succinylsulfathiazole] is higher in Z-score: 0.2363 for the first, 1.139 for the second.

Compared with `CC(=O)N[C@@H](CC(=O)N[C@@H](CCC(=O)O)C(=O)O)C(=O)O` [Spaglumic acid], `CCCCC1(COC(=O)CCC(=O)O)C(=O)N(c2ccccc2)N(c2ccccc2)C1=O` [Suxibuzone] is lower in Z-score: 0.9666 for the first, −1.3282 for the second.

Going from `O=C(CCCN1CCC2(CC1)C(=O)NCN2c1ccccc1)c1ccc(F)cc1` [Spiperone] to `CC(C)(C)c1ccc(C(O)CCCN2CCC(C(O)(c3ccccc3)c3ccccc3)CC2)cc1` (stereo not shown) [Terfenadine], the Z-score rises from −1.6819 to −0.8896.

Compared with `C[N+]1(C)CCC[C@H]1C(=O)[O-].Cl` [Stachydrine hydrochloride], `CCN1CCCC1CNC(=O)c1cc(S(N)(=O)=O)ccc1OC` (stereo not shown) [Sulpiride] is lower in Z-score: 0.2248 for the first, −0.2187 for the second.

Going from `Nc1ccc(S(=O)(=O)NC(=O)c2ccccc2)cc1` [Sulfabenzamide] to `Nc1ccc(S(=O)(=O)Nc2ccccn2)cc1` [Sulfapyridine], the Z-score falls from 1.96 to 0.5256.

First: CC(=O)[N-]S(=O)(=O)c1ccc(N)cc1.O.[Na+] [Sulfacetamide sodic hydrate]
Second: Nc1ccc(S(N)(=O)=O)cc1 [Sulfanilamide]
The Z-score of the first is lower: −0.3059 for the first, 0.2959 for the second.

Going from `Nc1ccc(S(=O)(=O)Nc2ccc(Cl)nn2)cc1` [Sulfachloropyridazine] to `COc1ccc(NS(=O)(=O)c2ccc(N)cc2)nn1` [Sulfamethoxypyridazine], the Z-score falls from 1.134 to −0.0234.

Going from `Nc1ccc(S(=O)(=O)Nc2ncccn2)cc1` [Sulfadiazine] to `Cc1ccnc(NS(=O)(=O)c2ccc(N)cc2)n1` [Sulfamerazine], the Z-score falls from 0.09783 to −0.0984.

Going from `COc1cc(NS(=O)(=O)c2ccc(N)cc2)nc(OC)n1` [Sulfadimethoxine] to `COc1cc(NS(=O)(=O)c2ccc(N)cc2)ncn1` [Sulfamonomethoxine], the Z-score falls from 0.4077 to −1.3171.

Compared with `COc1ncnc(NS(=O)(=O)c2ccc(N)cc2)c1OC` [Sulfadoxine], `COc1cnc(NS(=O)(=O)c2ccc(N)cc2)nc1` [Sulfameter] is lower in Z-score: −0.1202 for the first, −0.1501 for the second.

First: [H]/N=C(/N)NS(=O)(=O)c1ccc(N)cc1 [Sulfaguanidine]
Second: Nc1ccc(S(=O)(=O)Nc2nccs2)cc1 [Sulfathiazole]
The Z-score of the first is higher: 1.05 for the first, 0.1226 for the second.

Going from `Cc1cc(C)nc(NS(=O)(=O)c2ccc(N)cc2)n1` [Sulfamethazine sodium salt] to `Cc1noc(NS(=O)(=O)c2ccc(N)cc2)c1C` [Sulfisoxazole], the Z-score falls from 1.431 to −0.0512.

Compared with `Cc1nnc(NS(=O)(=O)c2ccc(N)cc2)s1` [Sulfamethizole], `Cc1cc(NS(=O)(=O)c2ccc(N)cc2)no1` [Sulfamethoxazole] is higher in Z-score: −0.7734 for the first, −0.4061 for the second.

Compared with `Nc1ccc(S(=O)(=O)Nc2ccnn2-c2ccccc2)cc1` [Sulfaphenazole], `O=C(O)c1cc(/N=N/c2ccc(S(=O)(=O)Nc3ccccn3)cc2)ccc1O` [Sulfasalazine] is lower in Z-score: −0.2854 for the first, −1.0569 for the second.

Compared with `O=C1C(CC[S+]([O-])c2ccccc2)C(=O)N(c2ccccc2)N1c1ccccc1` (stereo not shown) [Sulfinpyrazone], `CC1(C)S[C@@H]2[C@H](NC(=O)[C@H](N)c3ccccc3)C(=O)N2[C@H]1C(=O)OC1OC(=O)c2ccccc21` (stereo partly shown) [Talampicillin hydrochloride] is higher in Z-score: −1.4016 for the first, −0.9508 for the second.

Compared with `COc1cc([S+](C)[O-])ccc1-c1nc2ncccc2[nH]1` (stereo not shown) [Sulmazole], `CN1C(C(=O)Nc2ccccn2)=C(O)c2sccc2S1(=O)=O` [Tenoxicam] is lower in Z-score: 0.4097 for the first, −0.5016 for the second.

Compared with `CCCCCCCCNC(C)C(O)c1ccc(SC(C)C)cc1` (stereo not shown) [Suloctidil], `CC(C)N1CCN(c2ccc(OCC3COC(Cn4cncn4)(c4ccc(Cl)cc4Cl)O3)cc2)CC1` (stereo not shown) [Terconazole] is lower in Z-score: 21.8147 for the first, −0.3786 for the second.

First: CCOC(=O)Oc1c(OC)cc(C(=O)O[C@@H]2C[C@@H]3CN4CCc5c([nH]c6cc(OC)ccc56)[C@H]4C[C@@H]3[C@H](C(=O)OC)[C@H]2OC)cc1OC [Syrosingopine]
Second: COc1cc2nc(N3CCN(C(=O)C4CCCO4)CC3)nc(N)c2cc1OC (stereo not shown) [Terazosin hydrochloride]
The Z-score of the first is higher: 0.3519 for the first, −0.0723 for the second.

Work on `Cl.O=c1[nH]oc2c1CCNC2` [THIP Hydrochloride] yielded a Z-score of −1.3776.

— patent US9393221B2, “Methods and compounds for reducing intracellular lipid storage” (THE GENERAL HOSPITAL CORPORATION, priority 2011, dated 2016)
